PubChem BioAssay (NCI)
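Tested at 5 concentrations; 48 h exposure; 96-well plates; endpoints linearly interpolated, else capped at highest concentration. GI50: concentration for 50% inhibition of growth. TGI: concentration producing complete growth inhibition.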

Columns and labels:
Assay in all cases: NCI anticancer screen, dose series, 48 h
LXFL 529 NSCLC = tested on: LXFL 529 NSCLC
SNB-78 CNS = tested on: SNB-78 CNS
DMS 273 small cell lung = tested on: DMS 273 small cell lung
KM20L2 colon = tested on: KM20L2 colon
DLD-1 colon = tested on: DLD-1 colon
XF 498 CNS = tested on: XF 498 CNS
MDA-N = tested on: MDA-N

| SMILES | TGI (LXFL 529 NSCLC) | TGI (SNB-78 CNS) | TGI (DMS 273 small cell lung) | TGI (KM20L2 colon) | TGI (DLD-1 colon) | TGI (XF 498 CNS) | TGI (MDA-N) | GI50 (MDA-N) | GI50 (XF 498 CNS) |
| --- | --- | --- | --- | --- | --- | --- | --- | --- | --- |
| N#CCCN(CCC#N)c1ccc(/C=C(/NC(=O)c2cc([N+](=O)[O-])ccc2Cl)C(=O)NN)cc1 | > 100 µM | > 100 µM | > 100 µM | > 100 µM | > 100 µM |  |  |  |  |
| NC1N=Nc2ccccc21 (configuration not stated) | > 100 µM |  | > 100 µM | > 100 µM | > 100 µM | > 100 µM |  |  |  |
| COc1cc2c(NCCCCCO)ncnc2c(OC)c1OC |  |  |  |  |  |  | > 100 µM |  |  |
| CCc1ccccc1NC(=O)C(=O)C(C#N)c1ccccc1Cl (configuration not stated) | > 100 µM | > 100 µM |  | > 100 µM | > 100 µM | > 100 µM |  |  |  |
| COc1ccc(Nc2nc3cc(C(F)(F)F)ccc3nc2-c2ccccc2)cc1OC | > 100 µM | 66.7 µM | 21.8 µM |  | > 100 µM | 11.2 µM |  |  |  |
| Cc1cc(=O)[nH]c(CNC(=O)c2ccc3ccccc3c2)n1 | > 100 µM |  | > 100 µM | > 100 µM | > 100 µM | > 100 µM |  |  |  |
| c1ccc2c(c1)SC(=C1Sc3ccccc3S1)S2 | > 100 µM | > 100 µM | > 100 µM | > 100 µM | > 100 µM | > 100 µM |  |  |  |
| Fc1cc(F)c(F)c(S)c1F |  |  |  |  |  |  | > 100 µM |  |  |
| N#CC(C#N)=NNc1ccc2cn[nH]c2c1 |  |  |  |  |  |  | > 100 µM |  |  |
| [O-]/N=[N+](/[O-])C1CCCCC1=[N+]1CCOCC1 (configuration not stated) | > 100 µM | > 100 µM |  |  |  | > 100 µM |  |  |  |
| N/C=N/S(=O)(=O)c1ccc(NC(=O)COC(=O)c2cccc3c(=O)c4ccccc4[nH]c23)cc1 |  |  | > 100 µM |  | > 100 µM | > 100 µM |  |  |  |
| CN1C(=O)CC2(C)c3cc(O)cc(Br)c3N(C)C12 (configuration not stated) | > 100 µM | > 100 µM |  | > 100 µM |  | > 100 µM |  |  |  |
| COC(=O)Oc1nn(C(=O)OC)c(=O)c2ccccc12 |  |  |  |  |  |  | > 100 µM |  |  |
| O=C(CCC(=O)Nc1ccc(Cl)c(Cl)c1)CC(=O)c1ccc2ccccc2c1 | > 100 µM | > 100 µM | > 100 µM | > 100 µM | > 100 µM |  |  |  |  |
| O=C(O)CN(c1ccccc1)S(=O)(=O)c1cccc([N+](=O)[O-])c1 | > 100 µM |  | > 100 µM | > 100 µM | > 100 µM | > 100 µM |  |  |  |
| Cc1cc(Cl)nc2ccc(Cc3ccc4nc(Cl)cc(C)c4c3)cc12 |  |  |  |  |  |  | > 100 µM |  |  |
| O=C(COc1ccccc1Cl)N1N=C(c2ccccc2)CC1(O)c1ccccc1 (configuration not stated) | > 100 µM | 43.2 µM | 31.8 µM | 29.6 µM | 53.7 µM | 35.5 µM |  |  |  |
| O=C(Cc1ccccc1[N+](=O)[O-])C(CO)c1ccccc1[N+](=O)[O-] (configuration not stated) | > 100 µM | > 100 µM | > 100 µM | > 100 µM | > 100 µM | > 100 µM |  |  |  |

| SMILES | TGI (LXFL 529 NSCLC) | TGI (SNB-78 CNS) | TGI (DMS 273 small cell lung) | TGI (KM20L2 colon) | TGI (DLD-1 colon) | TGI (XF 498 CNS) | TGI (MDA-N) | GI50 (MDA-N) | GI50 (XF 498 CNS) |
| --- | --- | --- | --- | --- | --- | --- | --- | --- | --- |
| CC1CCC2C(C)C(=O)OC3OC4(C)CCC1C32OO4 (configuration not stated) | > 100 µM | > 100 µM | > 100 µM | > 100 µM |  | > 100 µM | > 100 µM | > 100 µM |  |
| COc1cccc(C=O)c1C(=O)c1cc(O)ccc1O |  | > 60.8 µM | > 100 µM | > 100 µM | 30.3 µM | > 100 µM |  |  |  |
| COC(=O)C1CSC(c2csc(CCN)n2)=N1 (configuration not stated) | > 100 µM | > 100 µM | > 100 µM | > 100 µM |  | > 100 µM |  |  |  |
| OCC1OC2c3ccccc3COC2C1OCc1ccccc1 (configuration not stated) | > 100 µM | > 100 µM |  | > 100 µM | > 100 µM | > 100 µM |  |  |  |
| O=C(NC(=Nc1ccccc1)SCSC(=Nc1ccccc1)NC(=O)c1ccco1)c1ccco1 | > 100 µM | > 100 µM | > 100 µM | > 100 µM | > 100 µM | 66.1 µM |  |  |  |
| COC(=O)[C@H]1COC(=S)N1C(=O)[C@@H](C)[C@H](O)C(C)C | > 100 µM | > 100 µM | > 100 µM | > 100 µM | > 100 µM | > 100 µM |  |  |  |
| COC(=O)C12CCC(C)(C)CC1C1=CCC3C4(C)CC(O)C(O)C(C)(C(=O)OC)C4CCC3(C)C1(CO)CC2 (configuration not stated) |  |  |  |  |  |  | 26.3 µM |  |  |
| C/C(CCn1[nH]c(=O)ccc1=O)=N\NC(=O)C(N)=O | > 100 µM | > 100 µM | > 100 µM | > 100 µM | > 100 µM | > 100 µM |  |  |  |
| Nc1nc(N)c(CCCCc2ccccc2)c(C=O)n1 |  | 81.6 µM | 39.1 µM | 90 µM | 46.2 µM |  |  |  |  |
| CC1(C)NC(=O)N(CCCCCCN2C(=O)NC(C)(C)C2=O)C1=O | > 100 µM | > 100 µM | > 100 µM | > 100 µM | > 100 µM |  |  |  |  |
| N#CC(C#N)=CNCCN1CCN(C=C(C#N)C#N)CC1 |  |  |  |  |  |  | > 100 µM |  |  |
| COc1ccc(-c2coc3cc(O)ccc3c2=O)cc1 |  |  |  |  |  |  | > 100 µM |  |  |
| C/C(=N\NC(=S)N1CCN(c2ccccn2)CC1)c1ccccn1 | 14.2 µM | 21.5 µM | 15 µM |  | 15.2 µM |  | 13.3 µM |  | 0.0236 µM |
| COC(=O)Cc1c([C@@]2(C)CCCC(C)(C)C2)ccc2c1C(=O)OC2 | 27.2 µM | 37.3 µM | 21 µM |  | 12.2 µM |  |  |  |  |
| O=Cc1cccc2ccc3ccccc3c12 |  |  |  |  |  |  | 73.2 µM |  |  |
| O=[N+]([O-])c1cc(-c2nc(=S)[nH][nH]2)ccc1O | > 100 µM | > 100 µM | > 100 µM | > 100 µM | > 100 µM |  |  |  |  |
| COC(=O)C1=COC2OC3C(C(C)O)C(=O)OC34C=CC1C24 (configuration not stated) |  |  |  |  |  |  | > 100 µM |  |  |
| COc1ccc2c(c1)[n+]([O-])c(-c1cccc(Cl)c1)c(N)[n+]2[O-] |  | > 100 µM | > 100 µM | > 100 µM | > 100 µM | > 100 µM |  |  |  |
